In ChEMBL document CHEMBL2074404, “Regulation of multidrug resistance-associated protein 2 (ABCC2) by the nuclear receptors pregnane X receptor, farnesoid X-activated receptor, and constitutive androstane receptor” (J Biol Chem, 2002):

Experiments:
[1] = target: T1, ATP-binding cassette sub-family C member 2 (Homo sapiens, UniProt Q92887); test: (§1) TP_TRANSPORTER: Northern blot in vitro, primary hepatocytes; assay type: functional, cell-based, Hepatocyte
[2] = target: T2, Bile salt export pump (Rattus norvegicus, UniProt O70127); test: as §1; assay type: functional, cell-based, Hepatocyte
T2 sequence (O70127 whole entry): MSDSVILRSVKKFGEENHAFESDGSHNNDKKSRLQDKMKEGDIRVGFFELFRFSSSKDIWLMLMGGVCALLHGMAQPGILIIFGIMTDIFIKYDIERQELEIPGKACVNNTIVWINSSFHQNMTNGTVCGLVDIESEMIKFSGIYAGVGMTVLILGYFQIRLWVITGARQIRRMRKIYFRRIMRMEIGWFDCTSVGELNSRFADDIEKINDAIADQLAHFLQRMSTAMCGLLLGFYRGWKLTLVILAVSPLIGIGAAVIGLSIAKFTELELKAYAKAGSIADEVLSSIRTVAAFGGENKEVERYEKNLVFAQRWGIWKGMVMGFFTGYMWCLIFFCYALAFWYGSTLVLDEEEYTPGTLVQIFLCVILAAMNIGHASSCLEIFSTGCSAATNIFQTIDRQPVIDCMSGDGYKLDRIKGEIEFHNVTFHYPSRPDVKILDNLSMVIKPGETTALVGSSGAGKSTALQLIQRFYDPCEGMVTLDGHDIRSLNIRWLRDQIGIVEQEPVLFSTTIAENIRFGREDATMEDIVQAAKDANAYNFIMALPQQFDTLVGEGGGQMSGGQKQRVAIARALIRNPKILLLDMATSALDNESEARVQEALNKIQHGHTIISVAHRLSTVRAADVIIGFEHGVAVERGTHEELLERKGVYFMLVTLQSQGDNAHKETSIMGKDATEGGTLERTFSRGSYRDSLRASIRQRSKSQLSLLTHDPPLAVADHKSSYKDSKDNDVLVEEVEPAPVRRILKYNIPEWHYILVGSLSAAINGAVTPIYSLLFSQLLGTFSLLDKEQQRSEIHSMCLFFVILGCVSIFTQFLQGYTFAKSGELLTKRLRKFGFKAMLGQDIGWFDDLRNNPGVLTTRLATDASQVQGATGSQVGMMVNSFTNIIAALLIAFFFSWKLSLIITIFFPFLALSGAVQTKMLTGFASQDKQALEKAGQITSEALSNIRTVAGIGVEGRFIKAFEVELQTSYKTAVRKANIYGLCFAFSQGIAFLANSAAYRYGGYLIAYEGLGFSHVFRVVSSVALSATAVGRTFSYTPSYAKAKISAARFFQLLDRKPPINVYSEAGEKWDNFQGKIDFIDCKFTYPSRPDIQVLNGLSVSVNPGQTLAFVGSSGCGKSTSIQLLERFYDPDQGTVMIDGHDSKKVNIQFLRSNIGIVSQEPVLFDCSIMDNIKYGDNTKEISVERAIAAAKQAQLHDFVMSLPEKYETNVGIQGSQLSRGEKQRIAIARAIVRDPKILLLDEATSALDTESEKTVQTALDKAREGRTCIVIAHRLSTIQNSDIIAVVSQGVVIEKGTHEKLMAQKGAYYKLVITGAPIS

[3] = target: ATP-binding cassette sub-family C member 2 (Rattus norvegicus, UniProt Q63120); test: as §1; assay type: functional, cell-based, Hepatocyte
[4] = target: T1, ATP-binding cassette sub-family C member 2; test: TP_TRANSPORTER: Northern blot from HepG2 cells; assay type: functional, cell-based
[5] = target: ATP-binding cassette sub-family C member 2 (Mus musculus, UniProt Q8VI47); test: as §1; assay type: functional, cell-based, Hepatocyte
Sequence of ATP-binding cassette sub-family C member 2 (Mus musculus, UniProt Q8VI47) (Q8VI47 whole entry): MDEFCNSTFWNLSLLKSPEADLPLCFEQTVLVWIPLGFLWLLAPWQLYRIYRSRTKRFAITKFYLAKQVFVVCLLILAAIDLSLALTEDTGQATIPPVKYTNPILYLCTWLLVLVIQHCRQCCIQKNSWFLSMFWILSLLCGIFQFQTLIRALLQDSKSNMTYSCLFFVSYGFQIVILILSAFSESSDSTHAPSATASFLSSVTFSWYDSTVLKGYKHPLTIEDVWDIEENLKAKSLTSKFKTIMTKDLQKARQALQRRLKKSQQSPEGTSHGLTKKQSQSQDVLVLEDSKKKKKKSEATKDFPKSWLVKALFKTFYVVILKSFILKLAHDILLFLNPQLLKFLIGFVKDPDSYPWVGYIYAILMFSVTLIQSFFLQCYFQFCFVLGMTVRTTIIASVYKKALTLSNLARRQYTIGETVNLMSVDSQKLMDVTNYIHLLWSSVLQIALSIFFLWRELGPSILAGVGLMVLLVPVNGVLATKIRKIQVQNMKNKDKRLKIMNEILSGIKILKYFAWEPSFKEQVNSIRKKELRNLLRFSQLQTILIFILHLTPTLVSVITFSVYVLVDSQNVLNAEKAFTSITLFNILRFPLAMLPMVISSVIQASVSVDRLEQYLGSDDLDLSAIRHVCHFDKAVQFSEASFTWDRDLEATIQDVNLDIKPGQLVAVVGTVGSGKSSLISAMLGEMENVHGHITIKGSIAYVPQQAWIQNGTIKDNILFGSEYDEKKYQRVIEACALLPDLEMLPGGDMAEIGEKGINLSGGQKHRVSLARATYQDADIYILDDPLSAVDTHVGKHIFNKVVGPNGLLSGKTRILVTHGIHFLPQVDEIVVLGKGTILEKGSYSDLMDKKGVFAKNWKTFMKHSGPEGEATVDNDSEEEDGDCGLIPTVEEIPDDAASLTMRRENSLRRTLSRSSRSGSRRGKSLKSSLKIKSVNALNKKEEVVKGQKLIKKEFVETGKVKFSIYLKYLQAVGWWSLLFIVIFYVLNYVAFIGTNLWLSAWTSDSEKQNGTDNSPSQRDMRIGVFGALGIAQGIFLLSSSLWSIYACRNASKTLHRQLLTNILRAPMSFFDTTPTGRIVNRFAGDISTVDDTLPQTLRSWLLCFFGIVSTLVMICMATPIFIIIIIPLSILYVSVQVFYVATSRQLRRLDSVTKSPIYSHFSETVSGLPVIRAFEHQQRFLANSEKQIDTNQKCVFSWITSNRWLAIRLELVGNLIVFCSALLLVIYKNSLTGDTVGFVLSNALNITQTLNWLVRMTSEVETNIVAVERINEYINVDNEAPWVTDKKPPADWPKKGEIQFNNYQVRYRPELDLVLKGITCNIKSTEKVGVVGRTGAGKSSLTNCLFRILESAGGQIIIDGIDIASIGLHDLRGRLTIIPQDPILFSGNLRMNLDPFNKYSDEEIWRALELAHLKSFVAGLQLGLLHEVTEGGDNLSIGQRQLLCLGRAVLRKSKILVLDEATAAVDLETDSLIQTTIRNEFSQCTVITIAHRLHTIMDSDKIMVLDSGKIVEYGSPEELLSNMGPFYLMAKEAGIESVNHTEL

T1 sequence (Q92887 whole entry): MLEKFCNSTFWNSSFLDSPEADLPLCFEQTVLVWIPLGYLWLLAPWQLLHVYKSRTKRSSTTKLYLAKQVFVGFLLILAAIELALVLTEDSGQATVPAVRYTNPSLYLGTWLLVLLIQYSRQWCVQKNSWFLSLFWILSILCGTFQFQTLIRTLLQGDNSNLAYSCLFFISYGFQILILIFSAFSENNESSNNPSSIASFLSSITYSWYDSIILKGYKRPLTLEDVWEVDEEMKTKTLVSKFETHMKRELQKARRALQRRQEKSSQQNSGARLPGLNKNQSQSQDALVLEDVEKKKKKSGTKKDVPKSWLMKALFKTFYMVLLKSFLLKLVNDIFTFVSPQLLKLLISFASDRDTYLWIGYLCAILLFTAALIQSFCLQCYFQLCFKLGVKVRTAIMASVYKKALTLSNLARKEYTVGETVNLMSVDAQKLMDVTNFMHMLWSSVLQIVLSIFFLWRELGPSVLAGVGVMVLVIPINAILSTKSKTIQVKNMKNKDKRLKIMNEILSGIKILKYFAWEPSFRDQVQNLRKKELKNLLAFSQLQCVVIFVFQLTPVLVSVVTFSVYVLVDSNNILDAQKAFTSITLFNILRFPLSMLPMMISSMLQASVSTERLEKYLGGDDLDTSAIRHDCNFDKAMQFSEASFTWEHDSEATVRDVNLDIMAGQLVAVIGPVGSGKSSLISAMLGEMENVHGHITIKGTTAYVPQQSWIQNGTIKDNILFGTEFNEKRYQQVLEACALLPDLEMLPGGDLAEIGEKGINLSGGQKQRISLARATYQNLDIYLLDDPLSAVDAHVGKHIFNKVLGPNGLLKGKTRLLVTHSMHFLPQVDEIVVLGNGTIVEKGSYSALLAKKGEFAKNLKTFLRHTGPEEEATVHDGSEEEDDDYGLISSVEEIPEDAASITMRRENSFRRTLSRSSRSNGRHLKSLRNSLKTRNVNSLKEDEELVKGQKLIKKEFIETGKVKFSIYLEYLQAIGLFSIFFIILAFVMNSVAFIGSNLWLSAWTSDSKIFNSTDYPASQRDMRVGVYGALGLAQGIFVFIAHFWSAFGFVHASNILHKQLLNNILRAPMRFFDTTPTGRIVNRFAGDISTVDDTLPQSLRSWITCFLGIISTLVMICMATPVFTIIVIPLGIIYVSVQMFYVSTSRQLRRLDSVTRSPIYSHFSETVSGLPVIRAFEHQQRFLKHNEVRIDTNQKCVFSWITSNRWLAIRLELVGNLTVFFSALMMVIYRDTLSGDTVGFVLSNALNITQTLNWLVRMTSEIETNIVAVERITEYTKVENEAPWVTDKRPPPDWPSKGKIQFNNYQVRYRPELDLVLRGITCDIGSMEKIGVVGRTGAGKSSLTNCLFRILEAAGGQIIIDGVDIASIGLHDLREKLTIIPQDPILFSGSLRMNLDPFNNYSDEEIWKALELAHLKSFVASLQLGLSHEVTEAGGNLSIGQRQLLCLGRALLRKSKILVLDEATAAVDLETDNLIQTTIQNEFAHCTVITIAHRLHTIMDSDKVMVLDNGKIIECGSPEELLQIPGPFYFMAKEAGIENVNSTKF
Sequence of ATP-binding cassette sub-family C member 2 (Rattus norvegicus, UniProt Q63120) (Q63120 whole entry): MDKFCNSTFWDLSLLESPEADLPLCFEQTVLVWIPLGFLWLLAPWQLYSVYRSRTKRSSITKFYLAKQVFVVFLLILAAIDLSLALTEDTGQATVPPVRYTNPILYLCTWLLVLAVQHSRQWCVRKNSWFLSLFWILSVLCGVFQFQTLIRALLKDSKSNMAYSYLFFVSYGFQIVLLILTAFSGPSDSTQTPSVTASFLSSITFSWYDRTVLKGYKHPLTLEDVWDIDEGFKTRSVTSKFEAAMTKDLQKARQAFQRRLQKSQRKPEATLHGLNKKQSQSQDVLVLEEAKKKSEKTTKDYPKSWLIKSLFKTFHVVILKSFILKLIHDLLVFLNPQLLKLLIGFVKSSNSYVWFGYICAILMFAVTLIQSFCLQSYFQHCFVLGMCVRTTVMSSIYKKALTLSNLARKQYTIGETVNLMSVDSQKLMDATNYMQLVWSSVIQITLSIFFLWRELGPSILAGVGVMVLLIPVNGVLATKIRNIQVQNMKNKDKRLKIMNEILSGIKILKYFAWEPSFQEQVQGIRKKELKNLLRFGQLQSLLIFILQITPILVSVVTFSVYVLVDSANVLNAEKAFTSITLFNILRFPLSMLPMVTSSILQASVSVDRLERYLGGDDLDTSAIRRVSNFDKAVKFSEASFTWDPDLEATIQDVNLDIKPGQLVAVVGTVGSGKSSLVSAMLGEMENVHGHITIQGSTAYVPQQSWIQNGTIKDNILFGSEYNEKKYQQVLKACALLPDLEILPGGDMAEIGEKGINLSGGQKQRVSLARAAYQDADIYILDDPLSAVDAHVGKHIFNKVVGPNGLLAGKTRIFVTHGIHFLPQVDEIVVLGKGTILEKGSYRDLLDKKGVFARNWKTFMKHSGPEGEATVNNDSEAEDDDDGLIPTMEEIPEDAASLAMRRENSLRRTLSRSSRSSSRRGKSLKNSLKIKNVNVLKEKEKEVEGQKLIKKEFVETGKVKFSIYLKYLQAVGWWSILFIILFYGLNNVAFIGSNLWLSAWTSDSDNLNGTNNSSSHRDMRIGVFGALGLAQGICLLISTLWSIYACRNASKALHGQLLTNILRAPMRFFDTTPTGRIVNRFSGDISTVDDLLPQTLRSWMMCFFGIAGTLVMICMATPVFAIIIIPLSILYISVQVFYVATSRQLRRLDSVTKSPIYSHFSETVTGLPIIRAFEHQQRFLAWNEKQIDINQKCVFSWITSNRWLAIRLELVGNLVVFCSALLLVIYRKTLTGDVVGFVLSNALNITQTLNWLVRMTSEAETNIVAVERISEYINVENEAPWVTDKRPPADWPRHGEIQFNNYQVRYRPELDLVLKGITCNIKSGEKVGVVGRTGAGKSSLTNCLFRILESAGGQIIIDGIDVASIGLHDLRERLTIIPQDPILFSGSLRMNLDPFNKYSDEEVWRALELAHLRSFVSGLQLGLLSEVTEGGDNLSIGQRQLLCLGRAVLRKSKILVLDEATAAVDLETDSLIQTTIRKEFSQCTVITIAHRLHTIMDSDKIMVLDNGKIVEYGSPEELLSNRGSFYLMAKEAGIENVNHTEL

## CC(C)=CCC[C@]1(C)[C@@H](CC=C(C)C)C[C@]2(CC=C(C)C)C(=O)C(CC=C(C)C)=C(O)[C@@]1(C(=O)C(C)C)C2=O
[1]
  Activity: inducer [+]

## CC(C)c1onc(-c2c(Cl)cccc2Cl)c1COc1ccc(/C=C/c2cccc(C(=O)O)c2)c(Cl)c1
[2]
  Activity: inducer [+]
[3]
  Activity: inducer [+]
[4]
  Activity: inducer [+]

## C[C@H](CCC(=O)O)[C@H]1CC[C@H]2[C@@H]3[C@H](O)C[C@@H]4C[C@H](O)CC[C@]4(C)[C@H]3CC[C@]12C [CHENODIOL]
[4]
  Activity: inducer [+]

## CCC1(c2ccccc2)C(=O)NC(=O)NC1=O [PHENOBARBITAL]
[2]
  Activity: inducer [+]
[5]
  Activity: inducer [+]

## CC(=O)[C@H]1[C@H](C#N)C[C@H]2[C@@H]3CC=C4C[C@@H](O)CC[C@]4(C)[C@H]3CC[C@@]21C [PREGNENOLONE CARBONITRILE]
[2]
  Activity: inducer [+]
[5]
  Activity: inducer [+]
[3]
  Activity: inducer [+]
